Reference: patent US20240417405A1, “Substituted Spiro Derivatives” (Janssen Pharmaceutica NV, priority 2021, published 2024)
Where two headings read alike, the source gives them in different places.

How the values were obtained:
[1] = target: T1, menin/MLL (terbium chelate-labeled menin, FITC-MBM1 peptide) (Homo sapiens, UniProt O00255, T541A); assay: Menin/MLL homogenous time-resolved fluorescence (HTRF) assay; type: binding; conditions: 30 min incubation
T1 construct: Menin (a.a 1-610-6xhis tag)
T1 sequence (O00255 with tags, fused parts or gaps T541A): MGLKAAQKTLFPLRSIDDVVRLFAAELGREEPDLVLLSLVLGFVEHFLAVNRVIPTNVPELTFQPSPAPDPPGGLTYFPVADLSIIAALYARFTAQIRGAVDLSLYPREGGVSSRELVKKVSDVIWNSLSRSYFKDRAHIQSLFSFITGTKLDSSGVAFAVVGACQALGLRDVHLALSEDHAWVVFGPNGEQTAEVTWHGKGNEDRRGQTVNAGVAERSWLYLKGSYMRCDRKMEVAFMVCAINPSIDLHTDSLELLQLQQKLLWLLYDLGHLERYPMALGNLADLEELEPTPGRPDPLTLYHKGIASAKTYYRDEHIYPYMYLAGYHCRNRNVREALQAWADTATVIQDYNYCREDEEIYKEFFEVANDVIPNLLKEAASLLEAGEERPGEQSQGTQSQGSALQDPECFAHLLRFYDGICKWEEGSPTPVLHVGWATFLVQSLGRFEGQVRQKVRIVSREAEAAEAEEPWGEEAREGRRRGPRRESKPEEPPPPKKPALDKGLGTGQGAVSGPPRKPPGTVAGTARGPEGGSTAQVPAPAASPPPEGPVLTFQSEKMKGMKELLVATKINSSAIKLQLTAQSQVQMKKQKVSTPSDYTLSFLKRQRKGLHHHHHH
In short: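 Displacement of FITC-labeled MBM1 peptide (75 nM) from terbium-labeled menin 1-610 (200 pM) measured by HTRF emission ratio. Eleven four-fold dilutions, typically from 10 μM, normalised to saturating-competitor and no-compound controls; IC50 from four-parameter logistic.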

MOLM14 cells = assay: Proliferation assay, spheroid-like growth, MOLM14 (MLL-AF9 rearranged); type: cell-based, human; conditions: 8 days, confluence as measure of spheroid size, read-out: spheroid assay_OneTime MOLM14 IC50
In short: (§1)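 Read-out is spheroid confluence from live-cell images taken on day 8, scaled between DMSO-treated wells (0% cytotoxicity) and a low control such as 1 μM staurosporin. Cells were exposed to compound for 8 days in low-attachment plates; KO-52 served as the MLL-wildtype counterscreen.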

KO-52 cells = assay: Proliferation assay, spheroid-like growth, KO-52 (MLL wildtype control cell line); type: cell-based, human; conditions: Homo sapiens, 192 h, KO-52 control cells, 8 days, confluence as measure of spheroid size; read-out: spheroid assay_OneTime KO-52 IC50
In short: as §1

Row | SMILES | IC50 [1] [nM] | IC50 (MOLM14 cells; Homo sapiens, MOLM-14, 192 h) [nM] | IC50 (KO-52 cells) [nM] | IC50 (MOLM14 cells) [nM]
1 | CC(C)[C@H]([C@H]1C[C@@H](N2CC3(COC3)C2)C1)N1CC2(CCN(c3ncnnc3Oc3ccc(F)cc3-c3cnncc3C3CC3)C2)C1 (single isomer, unassigned) [Compound 82] | 0.4 | 300 | > 15000 | 
2 | CC(C)[C@H]([C@H]1C[C@H](N2CC[C@H](F)C2)C1)N1CC2(CCN(c3ncnnc3Oc3ccc(F)cc3-c3cncnc3C3CC3)C2)C1 (single isomer, unassigned) [Compound 239] | 0.3 | 16 | 2810 | 
3 | CC(C)[C@H](C1CCN(CC2(O)CC2)CC1)N1CC2(CCN(c3ncnnc3Oc3ccc(F)cc3-c3cncnc3C3CC3)C2)C1 (single isomer, unassigned) [Compound 4] | 0.3 | 66 | 7730 | 
4 | CC(C)C([C@H]1C[C@H](N2CCC(F)(F)CC2)C1)N1CC2(CCN(c3ncnnc3Oc3ccc(F)cc3-c3cncnc3C3CC3)C2)C1 (stereo partly drawn) [Compound 128] | 1.3 | 450 | 7890 | 
5 | CC(C)[C@H]([C@H]1C[C@@H](Nc2ncc(C(=O)N(C)C)o2)C1)N1CC2(CCN(c3ncnnc3Oc3ccc(F)cc3-c3cncnc3C3CC3)C2)C1 (single isomer, unassigned) [Compound 435] | 0.17 | 3 | 2470 | 
6 | CC(C)[C@@H]([C@H]1C[C@@H](N2CCCCC2)C1)N1CC2(CCN(c3ncnnc3Oc3ccc(F)cc3-c3nnccc3C3CC3)C2)C1 (single isomer, unassigned) [Compound 250] | 0.1 | 8 | 940 | 
7 | COC1(C)CN([C@H]2C[C@H]([C@H](C(C)C)N3CC4(CCN(c5ncnnc5Oc5ccc(F)cc5-c5nnccc5C5CC5)C4)C3)C2)C1 (single isomer, unassigned) [Compound 264] | 0.8 | 170 | 14400 | 
8 | CC(C)[C@@H]([C@H]1C[C@@H](N2C[C@H]3COC[C@H]3C2)C1)N1CC2(CCN(c3ncnnc3Oc3ccc(F)cc3-c3ncncc3C3CC3)C2)C1 (single isomer, unassigned) [Compound 97] | 0.1 | 3 | 310 | 
9 | CC(C)[C@H]([C@H]1C[C@@H](NC(=O)C2CC2)C1)N1CC2(CCN(c3ncnnc3Oc3ccc(F)cc3-c3cncnc3C3CC3)C2)C1 (single isomer, unassigned) [Compound 303] | 0.3 | 7 | 4530 | 
10 | CC(C)[C@@H]([C@H]1C[C@@H](NC2CCOCC2)C1)N1CC2(CCN(c3ncnnc3Oc3ccc(F)cc3-c3cncnc3C3CC3)C2)C1 (single isomer, unassigned) [Compound 165] | 0.8 | 200 | 9910 | 
11 | CC(C)[C@@H]([C@H]1C[C@H](N2C[C@H]3COC[C@H]3C2)C1)N1CC2(CCN(c3ncnnc3Oc3ccc(F)cc3-c3cncnc3C3CC3)C2)C1 (single isomer, unassigned) [Compound 245] | 0.6 | 460 | 8940 | 
12 | CC(C)[C@@H]([C@H]1C[C@H](N2C[C@H]3COC[C@H]3C2)C1)N1CC2(CCN(c3ncnnc3Oc3ccc(F)cc3-c3cnncc3C3CC3)C2)C1 (single isomer, unassigned) [Compound 279] | 0.1 | 20 | 5990 | 
13 | CC(C)[C@@H]([C@H]1C[C@@H](N2CCC3(CCO3)CC2)C1)N1CC2(CCN(c3ncnnc3Oc3ccc(F)cc3-c3nnccc3C3CC3)C2)C1 (single isomer, unassigned) [Compound 251] | 0.2 | 7 | 1240 | 
14 | CC(C)[C@@H](C1CC2(C1)CN(CC1COC1)C2)N1CC2(CCN(c3ncnnc3Oc3ccc(F)cc3-c3cncnc3C3CC3)C2)C1 (single isomer, unassigned) [Compound 157] | 0.2 | 120 | 7770 | 
15 | Fc1ccc(Oc2nncnc2N2CCC3(C2)CN([C@@H](C2CCN(CC4COC4)CC2)C24CC(C2)C4)C3)c(-c2cncnc2C2CC2)c1 (single isomer, unassigned) [Compound 336] | 0.6 | 180 | 7650 | 
16 | CC(C)[C@H]([C@H]1C[C@@H](N2CCC(C)(C(=O)N(C)C)CC2)C1)N1CC2(CCN(c3ncnnc3Oc3ccc(F)cc3-c3cncnc3C3CC3)C2)C1 (single isomer, unassigned) [Compound 62] | 0.1 | 4 | 6260 | 
17 | CC(C)[C@H](C1CC2(C1)CN(CC1COC1)C2)N1CC2(CCN(c3ncnnc3Oc3ccc(F)cc3-c3cncnc3C3CC3)C2)C1 (single isomer, unassigned) [Compound 154] | 0.4 | 230 | 9080 | 
18 | CC(C)C([C@H]1C[C@@H](N)C1)N1CC2(CCN(c3ncnnc3Oc3ccc(F)cc3-c3cncnc3C3CC3)C2)C1 (single isomer, unassigned) [Compound 1a] | 0.1 |  | > 15000 | 20
19 | CC(C)[C@H](C1CN(CC2COC2)C1)N1CC2(CCN(c3ncnnc3Oc3ccc(F)cc3-c3cncnc3C3CC3)C2)C1 (single isomer, unassigned) [Compound 354] | 7.4 | 2430 | > 15000 | 
20 | CC(C)C([C@H]1C[C@@H](NC(=O)C2CC2)C1)N1CC2(CCN(c3ncnnc3Oc3ccc(F)cc3-c3cccc(=O)n3C3CC3)C2)C1 (stereo partly drawn) [Compound 189] | 0.4 | 140 | > 15000 | 
21 | CC(C)[C@H]([C@H]1C[C@@H](N2CCC3(CCO3)CC2)C1)N1CC2(CCN(c3ncnnc3Oc3ccc(F)cc3-c3cncnc3C3CC3)C2)C1 (single isomer, unassigned) [Compound 232] | 0.1 | 7 | 1800 | 
22 | CC(=O)N[C@H]1C[C@@H]([C@H](C(C)C)N2CC3(CCN(c4ncnnc4Oc4ccc(F)cc4-c4nccnc4C4CC4)C3)C2)C1 (single isomer, unassigned) [Compound 178] | 108 | > 940 | > 15000 | 
23 | CC(C)[C@@H]([C@H]1C[C@@H](N2CCC3(COC3)C2)C1)N1CC2(CCN(c3ncnnc3Oc3ccc(F)cc3-c3cccnc3C3CC3)C2)C1 (single isomer, unassigned) [Compound 289] | 0.1 | 2 | 310 | 
24 | CC(=O)Nc1nccc(N[C@H]2C[C@@H]([C@@H](C(C)C)N3CC4(CCN(c5ncnnc5Oc5ccc(F)cc5-c5cncnc5C5CC5)C4)C3)C2)n1 (single isomer, unassigned) [Compound 405] | 0.22 | 3 | 7570 | 
25 | CC(C)[C@@H]([C@H]1C[C@@H](N2CCN(C(=O)N(C)C)CC2)C1)N1CC2(CCN(c3ncnnc3Oc3ccc(F)cc3-c3cccnc3C3CC3)C2)C1 (single isomer, unassigned) [Compound 92] | 0.1 | 7 | 780 | 
26 | COCCN(C)[C@H]1C[C@@H]([C@@H](C(C)C)N2CC3(CCN(c4ncnnc4Oc4ccc(F)cc4-c4cncnc4C4CC4)C3)C2)C1 (single isomer, unassigned) [Compound 38] | 0.2 | 6 | > 15000 | 
